System: Episkin® model (reconstituted skin)
Assay: Barrier function of reconstituted skin (Episkin® model): penetration of a nonpenetrating reference compound (cationic anthraquinone)
Format: cell-based
Settings: condition E: Episkin® treated from D6 to D13 with 10 μM Hes7Glu; dye 1 mM applied for 4 hours
Text: The conversion of a nutritional agent (hereinafter known as probiotic conditioned medium) after ingestion is first of all stimulated, for the purpose of resulting use directly on a skin model (stage A).
The medium of the cocultures stimulated with Lactobacillus paracasei, resulting from the basolateral compartment, is subsequently withdrawn and its effects, in combination with the most important metabolite of hesperidin, hesperitin-7 glucuronide (Hes7Glu), on the barrier function in the Episkin® model are subsequently tested in vitro (stage B).
A—Preparation of the Probiotic Conditioned Medium
An intestinal barrier model (comprising human enterocyte lines (Caco-2) co-cultured with human leukocytes in a “transwell” cell co-culture system [Haller D, 2000]) has been developed. […]
The receiving liquid (RL) is collected and then assayed directly at the end of application by HPLC. Each point is analysed in duplicate. […]
The concentration is determined using a calibration range produced on the same day. The degrees of penetration are calculated from the ratio of the amount in the RL to the amount applied, the following results having in addition formed the subject of a statistical study using the Wilcoxon tests.

In the case of `COc1ccc([C@@H]2CC(=O)c3c(O)cc(O[C@@H]4O[C@H](C(=O)O)[C@@H](O)[C@H](O)[C@H]4O)cc3O2)cc1O` [Hes7Glu, hesperitin-7 glucuronide], the “effect on the barrier function (degree of penetration of the cationic anthraquinone)” value is reported as “no significant effect”.

Reference: US20090068161A1, “USE OF A COMBINATION OF HESPERIDIN AND OF A MICROORGANISM FOR INFLUENCING THE BARRIER FUNCTION OF THE SKIN” (L'OREAL, priority 2007, published 2009)
